The source of these data is patent US20210113602A1, “USE OF 6-THIO-2'-DEOXYGUANOSINE (6-THIO-dG) TO TREAT MELANOMA” (The Board of Regents of the University of Texas System, priority 2018, published 2021).

“Also recorded” adds a separate entry of the source.

Data set [1] relates to non-transformed primary human melanocytes. The data set can be described thus: Cell viability, Alamar Blue assay. The class given is cell-based. The note with it: 7 days; telomerase negative cells. As to the method:
(§1) FIGS. 2a-h. […] (FIGS. 2a-c) NRASmut melanoma cells (FIG. 2a), BRAF-V600E/NRAS mutant cells derived from melanoma patients resistant to BRAF/MEK inhibitors (FIG. 2b), or non-transformed melanocytes and fibroblasts (FIG. 2c) were treated with 6-thio-dG for 7 days. Cell viability was measured by Alamar Blue assay and calculated relative to DMSO-treated cells. (FIG. 2d) NRASmut melanoma cells and non-transformed human fibroblasts were treated with 1 or 5 μM 6-thio-dG for 7 or 14 days. Cell death was assessed by PSVUe staining. Percent of apoptotic cells is shown. (FIG. 2e) Cells were treated with DMSO or 1 μM 6-thio-dG for 14 days and telomere length was assessed by Southern blotting of TRF. Mean TRF length expressed as kilobase pairs is indicated at the bottom. (FIGS. 2f-g) Cells were treated with 1 μM 6-thio-dG for 7 days. (FIG. 2f) ROS production was measured by H2DCFDA fluorescence and normalized to MSO treated cells. (FIG. 2g) DNA damage was assessed by γH2AX staining. […] Tumor volume was measured and average tumor volume (n=4)±SEM was plotted vs. time.
(§2) Cell culture, viability and cell death assays. […] Cell viability was assessed following 6 hr incubation with 500 μM Alamar Blue (ThermoFisher Scientific, Waltham, Mass.) using an EnVision Xcite Multilabel plate reader (Perkin Elmer, Waltham, Mass.). […]
Background: The colour change of resazurin is a common sign of viable cells or microbes.

For data set [2], the system named is non-transformed primary human fibroblasts. In words: Cell viability, Alamar Blue assay. In kind it is cell-based. The conditions noted are these: 7 days; telomerase negative cells. As for the experimental part:
as §1, §2

The conditions of data set [3]: in mice; cited from earlier work.
The test system of data set [4] is NRASmut melanoma cells (WM3000 or M93-047) tumors. The data set can be described thus: NRAS mutant melanoma xenograft tumors in NSG mice. In kind it is in vivo. The note with it: 2.5 mg/kg i.p. q.d. As for the experimental part:
as §1, with “(FIGS. 2f-g) Cells were treated with 1 μM 6-thio-dG for 7 days.” left out
green) and EtBr (dead cells; red) and imaged using an inverted microscope (4×; scale bar=250 μm). […] P values were calculated using unpaired Student's t-test. * p<0.05, **p<0.01, ***p<0.005, when comparing vehicle control vs. combination treatment groups. […] Kaplan Meier survival curves of mice treated for 14 days. p-values were calculated by Mantel-Cox logrank test; * p<0.05, **p<0.01, ***p<0.005. […]

Data set [5] concerns NRAS mutant melanoma cells. The data set can be described thus: DNA damage, γH2AX staining. In kind it is cell-based, human. The note with it: 1 μM for 7 days. As for the experimental part: FIGS. 2a-h. […] (FIGS. 2a-c) NRASmut melanoma cells (FIG. 2a), BRAF-V600E/NRAS mutant cells derived from melanoma patients resistant to BRAF/MEK inhibitors (FIG. 2b), or non-transformed melanocytes and fibroblasts (FIG. 2c) were treated with 6-thio-dG for 7 days. Cell viability was measured by Alamar Blue assay and calculated relative to DMSO-treated cells. (FIG. 2d) NRASmut melanoma cells and non-transformed human fibroblasts were treated with 1 or 5 μM 6-thio-dG for 7 or 14 days. Cell death was assessed by PSVUe staining. Percent of apoptotic cells is shown. (FIG. 2e) Cells were treated with DMSO or 1 μM 6-thio-dG for 14 days and telomere length was assessed by Southern blotting of TRF. Mean TRF length expressed as kilobase pairs is indicated at the bottom. (FIGS. 2f-g) Cells were treated with 1 μM 6-thio-dG for 7 days. (FIG. 2f) ROS production was measured by H2DCFDA fluorescence and normalized to MSO treated cells. (FIG. 2g) DNA damage was assessed by γH2AX staining. Data represent average from three independent experiments±SEM. *p<0.05; **p<0.01; ***p<0.005 in unpaired Student's t-test. […] Tumor volume was measured and average tumor volume (n=4)±SEM was plotted vs. time.
DNA damage and telomere dysfunction assay (TIF). […] Mean fluorescence staining was quantified by flow cytometry. […]

Regarding `Nc1nc2c(ncn2[C@H]2C[C@H](O)[C@@H](CO)O2)c(=S)[nH]1` [6-thio-dG, 6-thio-2′-deoxy-guanosine], the cell viability result in data set [1] is listed as “did not significantly affect”. In data set [2], the cell viability result is reported as “did not significantly affect”. Moreover, in data set [3], the “alanine aminotransferase (ALT)” value is “no significant effects”, the “aspartate aminotransferase (AST)” value is on record as “no significant effects”, the creatinine levels result is reported as “no significant effects” and the red blood cells entry was “no significant effects”. The white blood cells entry in data set [3] was “no significant effects”. Further, the “tumor growth, single agent” value in data set [4] was “slowed the growth of tumors; also recorded: slowed, but did not completely abrogated tumor growth”. Besides, the γH2AX levels result in data set [5] is on record as “increased levels”.
